{"source": "patent US7655225B2", "about": "“Methods of expanding stem and progenitor cells and expanded cell populations obtained thereby” (Gamida Cell, Ltd., priority 2002, dated 2010)", "key": {"CD34+ cells [1]": {"system": "CD34+ cells", "assay": "Cellular copper content by atomic absorption", "assay_type": "cell-based, human", "settings": "2 days incubation, relative to untreated control", "description": "Cell cultures: Cultures of enriched CD34^+ cell fraction were generated, maintained and analyzed as described in Example 1 above.\nCopper Determination: Cells were harvested by centrifugation at 1000 g for 5 minutes. The cell pellet was washed three times in PBS. Aliquots containing 2×10^6 cells were then transferred into a metal-free Eppendorf tube and pelleted by centrifugation at 1000 g. The cell pellet was re-suspended in 0.03 M ultra-pure nitric acid to give a concentration of 1×10^7 cells/ml. The cells were sonicated and then analyzed in duplicate by a Perkin Elmer graphite furnace atomic absorption spectrophotometer at a wavelength of 324.7 nm and a 0.7 slit width. The following times and temperatures were used: drying at 95° C. for 45 seconds with a 15-s ramp; charring at […] for 30 seconds with a 10-s ramp, and atomization at […] for 10 seconds. The peak area was integrated for 10 seconds. The samples were analyzed against copper standard solution prepared from a commercial stock solution that was diluted with 0.03 M ultra pure nitric acid.\nEffect of TEPA-Cu chelate and TEPA chelator on the cellular copper content: Purified CD34^+ cell were seeded in liquid culture in the presence of early cytokines and treated either with TEPA-Cu chelate or with TEPA chelator. After 2 days incubation, cells were separated from culture media and analyzed for cellular copper content. The results are presented in Table 1 below and indicate that cultured cells treated with TEPA-Cu chelate, at different concentrations, developed progressively higher cellular copper content. In contrast, cultured cells treated with TEPA chelator, at different concentrations, developed progressively lower cellular copper contents."}, "CD34+ cells [2]": {"system": "CD34+ cells", "assay": "Ex vivo expansion of purified CD34+ cells in liquid culture: cell enumeration and FACS of subsets", "assay_type": "cell-based, human", "settings": "for density of CD34+CD38− cells, fold higher than untreated control / density of CD34+ Lin− progenitor cells, fold higher than untreated control: with IL-3; for density of CD34+CD38− cells, fold higher than untreated control: FIG. 6b; for density of CD34+ Lin− progenitor cells, fold higher than untreated control: FIG. 6c", "description": "Sample collection and processing: Samples were obtained from umbilical human cord blood and processed within 12 hours. The blood cells were mixed with 3% Gelatin (Gigma, St. Louis, Mo.) and allowed to sediment for 30 minutes to remove most red blood cells. The leukocyte-rich fraction was harvested, layered on Ficoll-Hypaque (density 1.077 gram/ml; Sigma) and centrifuged at 400 g for 30 minutes at room temperature. The mononuclear cells in the interface layer were then collected, washed three times in phosphate-buffered saline (PBS; Biological Industries), and re-suspended in PBS solution which contains 1% bovine serum albumin (BSA; Sigma). The cells were then incubated at 4° C. for 30 minutes with murine monoclonal anti CD34^+ antibody (0.5 μg/10^6 mononuclear cells) and were thereafter isolated using two cycles of immuno-magnetic separation using the miniMACS CD34^+ Progenitor Cell Isolation Kit (Miltenyi-Biotec, Auburn, Calif.) according to the manufacturer's recommendations. The purity of the CD34^+ cells obtained ranged between 95% and 98%, based on Flow Cytometry evaluation (see below). Ex vivo expansion of progenitor cells: Enriched CD34^+ cell fractions were cultures in 24-well Costar Cell Culture Clusters (Corning Inc., Corning, N.Y.) or in Culture Bags (American Fluoroseal Corp.) with alpha minimal essential medium supplemented with 10% fetal bovine serum (FBS, Biological Industries), at about 1-3×10^4 cells/ml medium. The media were further supplemented with the following human recombinant cytokines (all obtained from Perpo Tech, Inc., Rocky Hill, N.J.): Thrombopoietin (TPO), 50 ng/ml; interleukin 6 (IL-6), 50 ng/ml; FLT-3 ligand, 50 ng/ml; and IL-3, 20 ng/ml. The cultures were incubated at 37° C. in an atmosphere of 5% CO2 in air with extra humidity. At weekly intervals cell cultures were semi-depopulated and supplemented with fresh medium containing the cytokines. Following different incubation periods, the cells were harvested, stained with trypan blue and enumerated. The total cell counts, numbers of CD34^+ cells and subsets thereof, and the number of colony-forming cells (CFU) are presented herein as cumulative numbers, with the assumption that the cultures had not been passaged, namely, the numbers of cells per ml were multiplied by the number of passages performed. Surface antigen analysis: At different time intervals, the cultured cells were harvested, washed with a PBS solution containing 1% BSA and 0.1% sodium azide (Sigma), and stained, at 4° C. for 60 minutes, with FITC-labeled anti CD45 monoclonal antibody and either PE-labeled anti CD34 (HPCA-2) monoclonal or PE-labeled control mouse Ig (all from Immunoquality Products, the Netherlands). The cells were then washed with the same PBS solution and were analyzed by a flow cytometer, as described hereinafter. Flow cytometry analysis: Cells were analyzed and sorted using FACS caliber flow cytometer (Becton-Dickinson, Immunofluorometry systems, Mountain View, Calif.). Cells were passed at a rate of 1,000 cells/second through a 70 μm nozzle, using a saline sheath fluid. A 488 nm argon laser beam at 250 mW served as the light source for excitation. Fluorescence emission of ten thousand cells was measured using a logarithmic amplification and analyzed using CellQuest software. Determination of the density of stem and progenitor subset populations following expansion: Following an incubation period, the CD34^+ cells were re-selected using miniMACS Miltenyi kit. The purity of the positive fraction of selected CD34^+ cells was confirmed by FACS analysis as well as by cell morphology analysis. The density of CD34^+ cells, in proportion (percentage) to total cells, was determined directly via FACS analysis. The densities of CD34^+ subset populations were determined from the purified CD34^+ fraction. Re-selected CD34^+ cells were stained with lineage specific antigens followed by FACS analysis to determine the percentage of the subset populations within the total number of CD34^+ cells. […]"}}, "data": [{"smiles": "NCCNCCNCCNCCN", "note": "[TEPA chelator, tetraethylenepentamine]", "values": [{"measurement": "Relative cellular-copper content (%)", "setting": "CD34+ cells [1]; 5 μM", "result": 80, "unit": "%"}, {"measurement": "Relative cellular-copper content (%)", "setting": "CD34+ cells [1]; 10 μM", "result": 55, "unit": "%"}, {"measurement": "Relative cellular-copper content (%)", "setting": "CD34+ cells [1]; 20 μM", "result": 42, "unit": "%"}, {"measurement": "density of CD34+ CD38− subset cells vs untreated or TEPA-Cu treatment", "setting": "CD34+ cells [2]; three weeks, 5 μM, FIG. 12b", "result": "substantially increased"}, {"measurement": "density of CD34+ Lin− subset cells vs untreated or TEPA-Cu treatment", "setting": "CD34+ cells [2]; three weeks, 5 μM, FIG. 12c", "result": "substantially increased"}, {"measurement": "density of CD34+CD38− cells vs untreated or TEPA-Cu treatment", "setting": "CD34+ cells [2]; two and three weeks, 5 μM, FIG. 13b", "result": "substantially higher"}, {"measurement": "density of CD34+ Lin− cells vs untreated or TEPA-Cu treatment", "setting": "CD34+ cells [2]; two and three weeks, 5 μM, FIG. 13c", "result": "substantially higher"}, {"measurement": "density of CD34+ cells vs untreated control", "setting": "CD34+ cells [2]; two weeks culture, 5 μM, FIGS. 11a-b", "result": "slightly decreased"}]}, {"smiles": "NCCNCCNCCNCCN.[Cl-].[Cl-].[Cu+2]", "note": "[TEPA-Cu chelate, tetraethylenepentamine-copper chelate]", "values": [{"measurement": "Relative cellular-copper content (%)", "setting": "CD34+ cells [1]; 10 μM", "result": 178, "unit": "%"}, {"measurement": "Relative cellular-copper content (%)", "setting": "CD34+ cells [1]; 30 μM", "result": 235, "unit": "%"}, {"measurement": "Relative cellular-copper content (%)", "setting": "CD34+ cells [1]; 60 μM", "result": 290, "unit": "%"}, {"measurement": "density of CD34+CD38− cells, fold higher than untreated control", "setting": "CD34+ cells [2]; 20 μM, two weeks", "result": 5, "unit": "fold"}, {"measurement": "density of CD34+ Lin− progenitor cells, fold higher than untreated control", "setting": "CD34+ cells [2]; 20 μM, two weeks", "result": 3, "unit": "fold"}, {"measurement": "density of CD34+CD38− cells, fold higher than untreated control", "setting": "CD34+ cells [2]; 40 μM, two weeks", "result": 15, "unit": "fold"}, {"measurement": "density of CD34+ Lin− progenitor cells, fold higher than untreated control", "setting": "CD34+ cells [2]; 40 μM, two weeks", "result": 5, "unit": "fold"}, {"measurement": "density of CD34+CD38− cells, fold higher than untreated control", "setting": "CD34+ cells [2]; 50 μM, two weeks", "result": 15, "unit": "fold"}, {"measurement": "density of CD34+ Lin− progenitor cells, fold higher than untreated control", "setting": "CD34+ cells [2]; 50 μM, two weeks", "result": 4, "unit": "fold"}, {"measurement": "number of CD34+ cells vs untreated (cytokines only) culture", "setting": "CD34+ cells [2]; 2 and 3 weeks, 30 μM or 40 μM, FIG. 5a", "result": "remained almost unchanged"}, {"measurement": "number of CD34+CD38− cells, fold higher than untreated control", "setting": "CD34+ cells [2]; 3 weeks, 30 μM or 40 μM, FIG. 5b", "result": "6-7 fold"}, {"measurement": "number of CD34+ Lin− cells, fold higher than untreated control", "setting": "CD34+ cells [2]; 3 weeks, 30 μM or 40 μM, FIG. 5c", "result": "4-6.5 fold"}, {"measurement": "density of CD34+ stem cells, expansion", "setting": "CD34+ cells [2]; three weeks, 40 μM, TPO, FLT-3, IL-6, SCF, untreated 40 fold, FIG. 4a", "result": 50, "unit": "fold"}, {"measurement": "density of CD34+CD38− progenitor cells, expansion", "setting": "CD34+ cells [2]; three weeks, 40 μM, untreated 5 fold, FIG. 4b", "result": 250, "unit": "fold"}, {"measurement": "density of CD34+ Lin− progenitor cells, expansion", "setting": "CD34+ cells [2]; three weeks, 40 μM, untreated 10 fold, FIG. 4c", "result": 110, "unit": "fold"}, {"measurement": "more total cells as compared with the untreated control", "setting": "CD34+ cells [2]; three weeks, 50 μM, FIG. 8a", "result": "ca. 25%"}, {"measurement": "density of CD34+ CD38− subset cells vs untreated control", "setting": "CD34+ cells [2]; three weeks, 50 μM, FIG. 8c", "result": "substantially higher"}, {"measurement": "density of CD34+ Lin− subset cells vs untreated control", "setting": "CD34+ cells [2]; three weeks, 50 μM, FIG. 8d", "result": "substantially higher"}, {"measurement": "CD34+ cell expansion vs untreated control", "setting": "CD34+ cells [2]; two weeks culture, 40 μM, FIGS. 11a-b", "result": "did not significantly affect"}, {"measurement": "density of CD34+CD61+ progenitor cells, fold vs untreated control", "setting": "CD34+ cells [2]; two weeks, 40 μM, FIG. 7a", "result": "ca. 2 fold"}, {"measurement": "density of CD34+CD41+ progenitor cells, fold vs untreated control", "setting": "CD34+ cells [2]; two weeks, 40 μM, FIG. 7b", "result": "~3", "unit": "fold"}, {"measurement": "density of CD34+ stem cells, fold higher than untreated control", "setting": "CD34+ cells [2]; two weeks, 20, 40 and 50 μM, TPO, FLT-3, IL-6, IL-3, FIG. 6a", "result": "ca. 1.5 fold"}]}]}
